Data set [1] is described as follows: Solubility test in cell culture medium. It is filed as physicochemical. To be noted: plasma or biological fluid, vortex mixing, centrifugation five minutes at 13,000 g, read-out: solubility in cell culture medium (completely soluble up to). As to the method: This experiment was to test the solubility of compound (I-1), compound (I-2), compound (I-3), compound (I-4), and compound (I-5) in cell culture medium. After vortex mixing and centrifugation for five minutes at 13,000 g, the compounds were completely soluble in the cell culture medium up to 100 μM.

Data set [2] in a line: MTT cytotoxicity test, un-induced cells. To be noted: human. The class given is cell-based, human. How it is done: (§1) This experiment was to test the toxicity of compounds (I-1), (I-2), (I-3), (I-4), and (I-5) to un-induced Tet-On Aβ-GFP Ftp-In 293 and SH-SY5Y cells. Un-induced Tet-On Aβ-GFP Flp-In 293 and SH-SY5Y cells were treated with compounds (I-1), (I-2), (I-3), (I-4), and (I-5) in different concentrations from 0.1 to 100 μM for 24 hours, followed by conducting MTT assay to test the cytotoxicity of the compounds. The experiment also tested the cytotoxicity of licochalcone A (0.1-100 μM) and curcumin (1-10 μM) to the un-induced Tet-On Aβ-GFP Flp-In 293 and SH-SY5Y cells. In the experiment, the relative cellular survival rate of untreated cells was 100%, the half maximal inhibitory concentration (IC50) of each compound was calculated by using interpolation, and the sample number of each group was n=3.

In data set [3] the test system is Aβ aggregation in Tet-On Aβ-GFP Flp-In 293 cells. The data set can be described thus: Inhibition of abnormal β-amyloid aggregation test (GFP fluorescence, high-content analysis). It is filed as cell-based, human. Particulars: for GFP fluorescence: untreated 100%. As to the method: GFP fluorescence was used to reflect Aβ aggregation status as Aβ aggregated to cause the fused GFP misfolded, and thus cause the reduction of fluorescence on Aβ-GFP expressing cells. Inhibition of Aβ aggregation may improve GFP misfolding and lead to increased fluorescence on Aβ-GFP expressing cells. […] Then doxycycline (Dox) (2 μg/mL) was added to the cells for 64 hours to induce the Aβ-GFP expression, and GFP fluorescence was assessed by a high-content analysis (HCA) system (ImageXpressMICRO, available from Molecular Devices). The experiment also tested the inhibition effect of Aβ aggregation by curcumin (1-10 μM) and licochalcone A (0.001-100 μM). In the experiment, the amount of fluorescence measured in the untreated group (untreated with compounds) was 100%, and the sample number of each group was n=3.

The nature of data set [4]: Cytotoxicity of induced cells, propidium iodide staining and flow cytometer. It is filed as cell-based, human. Particulars: human.
The subject of data set [5] is un-induced Tet-On Aβ-GFP Flp-In 293 and SH-SY5Y cells. Nature of the data set: MTT cytotoxicity test, un-induced cells. Particulars: MTT, 24 hours; range over un-induced Flp-In 293 (FIG. 1A) and SH-SY5Y (FIG. 1B) cells. It is filed as cell-based, human. As to the method:
as §1

In data set [6] the test system is Tet-On Aβ-GFP Flp-In 293 cells. Nature of the data set: Cytotoxicity of induced cells, propidium iodide staining and flow cytometer. It is filed as cell-based, human. Particulars: induced cells, PI staining, flow cytometer (FIG. 3C).
Where [7] appears, read: 0.001-1 μM, cell survival rate more than 80%.
Where [8] appears, read: 0.001-10 μM, cell survival rate more than 80%.

With `COc1ccc(C(=O)/C=C/c2cc(Br)ccc2O)cc1` [Compound (I-1)], in data set [1], the solubility was no less than 100 µM. Further, the half-maximal inhibitory concentration (IC50) at 24 h in data set [2] is 8 to 51 µM. In addition, in data set [3] (0.001-0.1 μM, cell survival rate more than 80%), the GFP fluorescence is on record as 103-111%. Further, in data set [4], the half-maximal inhibitory concentration (IC50) is 47.7 µM.

`COc1cccc(/C=C/C(=O)c2ccc(O)cc2)c1O` [Compound (I-4)]: the solubility in data set [1] was no less than 100 µM. This compound returned an IC50 at 24 h in data set [2] of 45 to 71 µM. The GFP fluorescence in data set [3] (0.01-1 μM, cell survival rate more than 80%) is on record as 102-105%. 60.9 µM corresponded to half-maximal inhibition in data set [4] (IC50).

Regarding `COc1ccc(O)c(/C=C/C(=O)c2ccccc2)c1` [Compound (I-2)], in data set [1], the solubility was no less than 100 µM. Also, the IC50 at 24 h in data set [2] lay within 10 to 51 µM. Further, in data set [3] (setting [7]), the GFP fluorescence is on record as 105-112%. In data set [4], this compound yielded a concentration for half-maximal inhibition (IC50) of 57.5 µM.

Consider `Cc1ccc(/C=C/C(=O)c2c(O)c3ccccc3oc2=O)cc1` [Compound (I-3)], for which, in data set [1], the solubility was no less than 100 µM. Moreover, the IC50 at 24 h in data set [2] is no less than 55 µM. Also, the GFP fluorescence in data set [3] (setting [8]) was 103-117%. Moreover, it took 80.6 µM to reach half-maximal inhibition in data set [4] (IC50).

In data set [2], `COc1cc(/C=C/C(=O)CC(=O)/C=C/c2ccc(O)c(OC)c2)ccc1O` [curcumin, reference compound] displayed an IC50 at 24 h greater than 10 µM. In data set [3] (curcumin 2.5 μM and 5 μM), the cell number result is on record as “more than 80 % of untreated cells” and the GFP fluorescence is 107-120%.

With `O=C(c1ccccc1)c1cc2c(O)cccc2oc1=O` [Compound (I-5)], in data set [1], the solubility was no less than 100 µM. Also, the IC50 at 24 h in data set [2] is greater than 100 µM. Besides, the GFP fluorescence in data set [3] (setting [8]) was 107-125%. Moreover, half-maximal inhibition in data set [4] (IC50) was put at 95.1 µM.

Consider `C=CC(C)(C)c1cc(/C=C/C(=O)c2ccc(O)cc2)c(OC)cc1O` [licochalcone A, reference compound], for which the results for the IC50 in data set [5] and in data set [6] were 47 to 51 µM and 62.3 µM, respectively. In data set [3] (setting [7]), the GFP fluorescence was 105-115%.

For orientation: solubility means the dissolved amount per volume that the medium holds. In general, IC50 refers to the concentration that inhibits the measured activity by half. Read a high IC50 as lower potency.
